Where “and” joins values, the source holds several entries; their conditions need not be identical. Identical values can stand only once.
Columns and labels:
[1] = tested on: Brassica napus (Roundup Ready canola, RR-BRSNN); assay: Greenhouse postemergence application, visual injury after 20-22 d, RR-BRSNN
Procedure: (§1) Seeds of the desired test plant species were planted in Sun Gro MetroMix® 306 planting mixture, which typically has a pH of 6.0 to 6.8 and an organic matter content of about 30 percent, in plastic pots with a surface area of 103.2 square centimeters (cm^2). […] The plants were grown for 7-36 days (d) in a greenhouse with an approximate 14-hour (h) photoperiod which was maintained at about 23° C. during the day and 22° C. during the night. Nutrients and water were added on a regular basis and supplemental lighting was provided with overhead metal halide 1000-Watt lamps as necessary. The plants were employed for testing when they reached the second or third true leaf stage.
(§2) An aliquot of formulated benzyl 4-amino-3-chloro-6-(4-chloro-2-fluoro-3-methoxyphenyl)-5-fluoropyridine-2-carboxylate (florpyrauxifen-benzyl; 300 grams active ingredient per liter (g ai/L) suspension concentrate (SC)) was placed in a 25 mL glass vial and diluted in a volume of 1.25% (v/v) aqueous Agri-dex crop oil concentrated to obtain a stock solution. […] The concentrated stock solutions were diluted with an aqueous mixture of 1.25% v/v of aqueous Agri-dex crop oil concentrate to provide the appropriate application rates. Compound requirements are based upon a 12 milliliter (mL) application volume at a rate of 187 liters per hectare (L/ha). Stock solutions of the formulated materials were prepared following the same procedure. Spray solutions of the compound mixtures were prepared by adding the stock solutions to the appropriate amount of dilution solution to form a 12 mL spray solution. Formulated compounds were applied to the plant material with an overhead Mandel track sprayer equipped with 8002E nozzles calibrated to deliver 187 L/ha over an application area of 0.503 square meters (m^2) at a spray height of 18 inches (43 centimeters (cm)) above average plant canopy. Control plants were sprayed in the same manner with the solvent blank.
(§3) The treated plants and control plants were placed in a greenhouse as described above and watered by sub-irrigation to prevent wash-off of the test compounds. After 20-22 d, the condition of the test plants as compared with that of the control plants was determined visually and scored on a scale of 0 to 100 percent where 0 corresponds to no injury and 100 corresponds to complete kill. Colby's equation was used to determine the herbicidal effects expected from the mixtures.
(§4) Benzyl 4-amino-3-chloro-6-(4-chloro-2-fluoro-3-methoxyphenyl)-5-fluoropyridine-2-carboxylate (florpyrauxifen-benzyl, 300 g ai/L SC) was combined in two-, three-, and four-way mixtures with one or more of the following: clopyralid-olamine (as Lontrel™ 35A Herbicidal Concentrate), quinclorac (as Facet 75DF), isoxadifen-ethyl (100 g/L SC), cloquintocet-mexyl (120 g/L EC) or mefenpyr-diethyl (as mefenpyr-diethyl 15WP). The mixtures were applied to kale/Chinese kale (Brassica alboglabra, BRSAG), Juncea canola or brown mustard (Brassica juncea, BRSJU), rutabaga (Brassica napus var. napobrassica, BRSNA), all varieties of canola and oilseed rape (Brassica napus, BRSNN), Nexera™ canola (Brassica napus, BRSNN-NEX), winter oilseed rape (Brassica napus, BRSNW), Roundup Ready® canola (Brassica napus, RR-BRSNN), and turnip or Polish canola (Brassica rapa, BRSRR), and the phytotoxicity of the compositions was measured.
(§5) Colby's equation was used to determine the herbicidal effects expected from the mixtures evaluated in the described trials (Colby, S. R. Calculation of the synergistic and antagonistic response of herbicide combinations. Weeds 1967, 15, 20-22.).
(§6) The following equation was used to calculate the expected activity of mixtures containing two active ingredients, A and B: Expected=A+B−(A×B/100) • A=observed efficacy of active ingredient A at the same concentration as used in the mixture; • B=observed efficacy of active ingredient B at the same concentration as used in the mixture.

[2] = tested on: Brassica rapa (turnip or Polish canola, BRSRR); assay: Greenhouse postemergence application, visual injury after 20-22 d, BRSRR
Procedure: as §1, §2, §3, §4, §5, §6

[3] = tested on: Brassica juncea (Juncea canola or brown mustard, BRSJU); assay: Greenhouse postemergence application, visual injury after 20-22 d, BRSJU
Procedure: as §1, §2, §3, §4, §5, §6

[4] = florpyrauxifen-benzyl 2.5 g ai/ha alone
[5] = florpyrauxifen-benzyl 5 g ai/ha alone
[6] = florpyrauxifen-benzyl 10 g ai/ha alone
[7] = florpyrauxifen-benzyl alone 2.5 g ai/ha
[8] = florpyrauxifen-benzyl alone 5 g ai/ha
[9] = florpyrauxifen-benzyl alone 10 g ai/ha
[10] = postemergence application, greenhouse, application rate (g ai/ha) varies
[11] = isoxadifen-ethyl 5 g ai/ha alone
[12] = isoxadifen-ethyl 10 g ai/ha alone
[13] = isoxadifen-ethyl 20 g ai/ha alone
[14] = isoxadifen-ethyl 40 g ai/ha alone

SMILES: COc1c(Cl)ccc(-c2nc(C(=O)OCc3ccccc3)c(Cl)c(N)c2F)c1F [Florpyrauxifen-benzyl, benzyl 4-amino-3-chloro-6-(4-chloro-2-fluoro-3-methoxyphenyl)-5-fluoropyridine-2-carboxylate]
- % Visual Injury Obs ([1]; RR-BRSNN, 2.5 g ai/ha): 6%
- % Visual Injury Obs ([1]; RR-BRSNN, 5 g ai/ha): 9%
- % Visual Injury Obs ([1]; RR-BRSNN, 10 g ai/ha): 19%
- Obs % visual injury ([1]; RR-BRSNN, florpyrauxifen-benzyl alone 2.5 g ai/ha): 6%
- Obs % visual injury ([1]; RR-BRSNN, florpyrauxifen-benzyl alone 5 g ai/ha): 9%
- Obs % visual injury ([1]; RR-BRSNN, florpyrauxifen-benzyl alone 10 g ai/ha): 19%
- % Visual Injury Obs [1, 4]: 6%
- % Visual Injury RR-BRSNN Obs [1, 4]: 6%
- % Visual Injury Obs [1, 5]: 9%
- % Visual Injury RR-BRSNN Obs [1, 5]: 9%
- % Visual Injury Obs [1, 6]: 19%
- % Visual Injury RR-BRSNN Obs [1, 6]: 19%
- Obs % visual injury RR-BRSNN [1, 7]: 6%
- Obs % visual injury RR-BRSNN [1, 8]: 9%
- Obs % visual injury RR-BRSNN [1, 9]: 19%
- % Visual Injury Obs ([2]; BRSRR, 2.5 g ai/ha): 6%
- % Visual Injury Obs ([2]; BRSRR, 5 g ai/ha): 9%
- % Visual Injury Obs ([2]; BRSRR, 10 g ai/ha): 14%
- Obs % visual injury ([2]; BRSRR, florpyrauxifen-benzyl alone 2.5 g ai/ha): 6%
- Obs % visual injury ([2]; BRSRR, florpyrauxifen-benzyl alone 5 g ai/ha): 9%
- Obs % visual injury ([2]; BRSRR, florpyrauxifen-benzyl alone 10 g ai/ha): 14%
- % Visual Injury BRSRR Obs [2, 4]: 6%
- % Visual Injury Obs [2, 4]: 6%
- % Visual Injury BRSRR Obs [2, 5]: 9%
- % Visual Injury Obs [2, 5]: 9%
- % Visual Injury BRSRR Obs [2, 6]: 14%
- % Visual Injury Obs [2, 6]: 14%
- Obs % visual injury BRSRR [2, 7]: 6%
- Obs % visual injury BRSRR [2, 8]: 9%
- Obs % visual injury BRSRR [2, 9]: 14%
- % Visual Injury BRSRR Obs [2, 10]: 6% and 9% and 14%
- % Visual Injury Obs ([3]; BRSJU, 2.5 g ai/ha): 7%
- % Visual Injury Obs ([3]; BRSJU, 5 g ai/ha): 12%
- % Visual Injury Obs ([3]; BRSJU, 10 g ai/ha): 18%
- Obs % visual injury ([3]; BRSJU, florpyrauxifen-benzyl alone 2.5 g ai/ha): 7%
- Obs % visual injury ([3]; BRSJU, florpyrauxifen-benzyl alone 5 g ai/ha): 12%
- Obs % visual injury ([3]; BRSJU, florpyrauxifen-benzyl alone 10 g ai/ha): 18%
- % Visual Injury BRSJU Obs [3, 4]: 7%
- % Visual Injury Obs [3, 4]: 7%
- % Visual Injury BRSJU Obs [3, 5]: 12%
- % Visual Injury Obs [3, 5]: 12%
- % Visual Injury BRSJU Obs [3, 6]: 18%
- % Visual Injury Obs [3, 6]: 18%
- Obs % visual injury BRSJU [3, 7]: 7%
- Obs % visual injury BRSJU [3, 8]: 12%
- Obs % visual injury BRSJU [3, 9]: 18%

SMILES: CCOC(=O)C1=NOC(c2ccccc2)(c2ccccc2)C1 [Isoxadifen-ethyl, ethyl 4,5-dihydro-5,5-diphenyl-1,2-oxazole-3-carboxyalte]
- % Visual Injury Obs ([1]; RR-BRSNN, 5 g ai/ha): 0%
- % Visual Injury Obs ([1]; RR-BRSNN, 10 g ai/ha): 0%
- % Visual Injury Obs ([1]; RR-BRSNN, 20 g ai/ha): 0%
- % Visual Injury Obs ([1]; RR-BRSNN, 40 g ai/ha): 0%
- Obs % visual injury ([1]; RR-BRSNN, partner alone 5 g ai/ha): 0%
- Obs % visual injury ([1]; RR-BRSNN, partner alone 10 g ai/ha): 0%
- Obs % visual injury ([1]; RR-BRSNN, partner alone 20 g ai/ha): 0%
- Obs % visual injury ([1]; RR-BRSNN, partner alone 40 g ai/ha): 0%
- % Visual Injury Obs [1, 11]: 0%
- % Visual Injury Obs [1, 12]: 0%
- % Visual Injury Obs [1, 13]: 0%
- % Visual Injury Obs [1, 14]: 0%
- % Visual Injury RR-BRSNN Obs [1, 10]: 0%
- % Visual Injury Obs ([2]; BRSRR, 5 g ai/ha): 0%
- % Visual Injury Obs ([2]; BRSRR, 10 g ai/ha): 0%
- % Visual Injury Obs ([2]; BRSRR, 20 g ai/ha): 0%
- % Visual Injury Obs ([2]; BRSRR, 40 g ai/ha): 0%
- Obs % visual injury ([2]; BRSRR, partner alone 5 g ai/ha): 0%
- Obs % visual injury ([2]; BRSRR, partner alone 10 g ai/ha): 0%
- Obs % visual injury ([2]; BRSRR, partner alone 20 g ai/ha): 0%
- Obs % visual injury ([2]; BRSRR, partner alone 40 g ai/ha): 0%
- % Visual Injury Obs [2, 11]: 0%
- % Visual Injury Obs [2, 12]: 0%
- % Visual Injury Obs [2, 13]: 0%
- % Visual Injury Obs [2, 14]: 0%
- % Visual Injury BRSRR Obs [2, 10]: 0%
- % Visual Injury Obs ([3]; BRSJU, 5 g ai/ha): 0%
- % Visual Injury Obs ([3]; BRSJU, 10 g ai/ha): 0%
- % Visual Injury Obs ([3]; BRSJU, 20 g ai/ha): 0%
- % Visual Injury Obs ([3]; BRSJU, 40 g ai/ha): 0%
- Obs % visual injury ([3]; BRSJU, partner alone 5 g ai/ha): 0%
- Obs % visual injury ([3]; BRSJU, partner alone 10 g ai/ha): 0%
- Obs % visual injury ([3]; BRSJU, partner alone 20 g ai/ha): 0%
- Obs % visual injury ([3]; BRSJU, partner alone 40 g ai/ha): 0%
- % Visual Injury Obs [3, 11]: 0%
- % Visual Injury Obs [3, 12]: 0%
- % Visual Injury Obs [3, 13]: 0%
- % Visual Injury Obs [3, 14]: 0%
- % Visual Injury BRSJU Obs [3, 10]: 0%

SMILES: O=C(O)c1c(Cl)ccc2cc(Cl)cnc12 [Quinclorac, 3,7-dichloro-8-quinolinecarboxylic acid]
- % Visual Injury Obs ([1]; RR-BRSNN, 50 g ai/ha): 0%
- % Visual Injury Obs ([1]; RR-BRSNN, 100 g ai/ha): 0%
- % Visual Injury Obs ([1]; RR-BRSNN, 200 g ai/ha): 0%
- Obs % visual injury ([1]; RR-BRSNN, partner alone 50 g ai/ha): 0%
- Obs % visual injury ([1]; RR-BRSNN, partner alone 100 g ai/ha): 0%
- Obs % visual injury ([1]; RR-BRSNN, partner alone 200 g ai/ha): 0%
- % Visual Injury RR-BRSNN Obs [1, 10]: 0%
- % Visual Injury RR-BRSNN Obs ([1]; quinclorac 50 g ai/ha alone): 0%
- % Visual Injury RR-BRSNN Obs ([1]; quinclorac 100 g ai/ha alone): 0%
- % Visual Injury RR-BRSNN Obs ([1]; quinclorac 200 g ai/ha alone): 0%
- % Visual Injury Obs ([2]; BRSRR, 50 g ai/ha): 0%
- % Visual Injury Obs ([2]; BRSRR, 100 g ai/ha): 0%
- % Visual Injury Obs ([2]; BRSRR, 200 g ai/ha): 0%
- Obs % visual injury ([2]; BRSRR, partner alone 50 g ai/ha): 0%
- Obs % visual injury ([2]; BRSRR, partner alone 100 g ai/ha): 0%
- Obs % visual injury ([2]; BRSRR, partner alone 200 g ai/ha): 0%
- % Visual Injury BRSRR Obs [2, 10]: 0%
- % Visual Injury BRSRR Obs ([2]; quinclorac 50 g ai/ha alone): 0%
- % Visual Injury BRSRR Obs ([2]; quinclorac 100 g ai/ha alone): 0%
- % Visual Injury BRSRR Obs ([2]; quinclorac 200 g ai/ha alone): 0%
- % Visual Injury Obs ([3]; BRSJU, 50 g ai/ha): 0%
- % Visual Injury Obs ([3]; BRSJU, 100 g ai/ha): 0%
- % Visual Injury Obs ([3]; BRSJU, 200 g ai/ha): 0%
- Obs % visual injury ([3]; BRSJU, partner alone 50 g ai/ha): 0%
- Obs % visual injury ([3]; BRSJU, partner alone 100 g ai/ha): 0%
- Obs % visual injury ([3]; BRSJU, partner alone 200 g ai/ha): 0%
- % Visual Injury BRSJU Obs [3, 10]: 0%
- % Visual Injury BRSJU Obs ([3]; quinclorac 50 g ai/ha alone): 0%
- % Visual Injury BRSJU Obs ([3]; quinclorac 100 g ai/ha alone): 0%
- % Visual Injury BRSJU Obs ([3]; quinclorac 200 g ai/ha alone): 0%

— patent US10219513B2, “Safening 4-amino-3-chloro-6-(4-chloro-2-fluoro-3-methoxyphenyl)-5-fluoropyridine-2-carboxylic acid compositions in Brassica species and methods of use thereof” (Dow AgroSciences LLC, priority 2016, dated 2019)
